From paper PMC5078989, “Targeted inhibition of the COP9 signalosome for treatment of cancer” (Nature Communications, 2016)

Tested on: panel of cancer cell lines
Experiment: Cell viability (CellTiter-Glo) dose-response across cancer cell line panel;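 for EC50: after 72 h compound incubation with CellTiter-Glo ATP readout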
Type: cell-based, human
Conditions: for EC50: Homo sapiens
Excerpt: Next, we explored the effect of CSN5 inhibition on the viability of cancer cells. To obtain a comprehensive picture, we generated dose–response curves with a CSN5 inhibitor across more than 500 cancer cell lines in a previously described standardized setting[47] (Supplementary Data 1).
A standardized CellTiter-Glo Assay (Promega #G7570) based on the quantification of ATP was applied according to the manufacturer's protocol to measure the amount of viable cells in culture. In brief, cells were seeded into 384-well plates at optimal density for each cell line. After 4 h, compounds were added at different concentrations in growth medium and incubated for another 72 h in a humidifying chamber at 37 °C and 5% CO2. […] EC50 values were calculated from the plot of percentage of inhibition versus inhibitor concentration using the nonlinear regression analysis software Origin 7.5SR6 (OriginLab Corp.).

## COCc1ccccc1NCc1ccc([C@H]2[C@@H](O)CCCc3cncn32)c(-c2ccccc2Cl)c1 [CSN5i-2, (5S,6S)-5-(2′-chloro-5-(((2-(methoxymethyl)phenyl)amino)methyl)-[1,1′-biphenyl]-2-yl)-6,7,8,9-tetrahydro-5H-imidazo[1,5-a]azepin-6-ol]
59M
  AMAX: -68.225
  EC50: 2650 nM
A101D
  AMAX: -76.7398
  EC50: 372 nM
A172
  AMAX: -55.6841
A549
  AMAX: -65.9191
A2780
  AMAX: -85.074
ABC-1
  AMAX: -77.8125
AM-38
  AMAX: -77.876
AU565
  AMAX: -62.6343
AsPC-1
  AMAX: -59.6849
BFTC-909
  AMAX: -64.2004
BICR 6
  AMAX: -79.1425
  EC50: 1110 nM
BICR 16
  AMAX: -84.074
  EC50: 1020 nM
Calu-6
  AMAX: -81.2731
FaDu
  AMAX: -81.7331
  EC50: 550 nM
GP2d
  AMAX: -35.7458
  EC50: > 30000 nM
HARA
  AMAX: -63.4816
  EC50: 9030 nM
HCC1143
  AMAX: -57.1762
HCC1187
  AMAX: -75.8993
HCC1954
  AMAX: -88.6962
HD-MY-Z
  AMAX: -86.2175
  EC50: 531 nM
HEC-151
  AMAX: -65.4188
HEL
  AMAX: -95.954
HL-60
  AMAX: -90.6278
HLC-1
  AMAX: -73.9563
HLE
  AMAX: -90.9124
HLF
  AMAX: -62.5035
HSC-4
  AMAX: -75.9669
HT-29
  AMAX: -64.9206
HUP-T4
  AMAX: -81.3707
Hep3B
  AMAX: -76.5642
92.1
  EC50: 3880 nM
639-V
  EC50: 723 nM
697
  EC50: 477 nM
769-P
  EC50: 13900 nM
786-0, 786-O
  EC50: 1050 nM
1321-N1, 1321N1
  EC50: 3680 nM
8505C
  EC50: 829 nM
A4/Fuk
  EC50: 120 nM
A 172, A172
  EC50: 13400 nM
A204, A-204
  EC50: 206 nM
A498, A-498
  EC50: 1400 nM
A549, A549
  EC50: 1410 nM
A673, A-673
  EC50: 431 nM
A704, A-704
  EC50: 1640 nM
A2058, A2058
  EC50: 2050 nM
A2780, A2780
  EC50: 279 nM
A-375, A-375
  EC50: 690 nM
ABC-1, ABC-1
  EC50: 485 nM
ACC-MESO-1, ACC-MESO-1
  EC50: 2400 nM
AM-38, AM-38
  EC50: 983 nM
AML-193
  EC50: 3210 nM
AN3-CA, AN3 CA
  EC50: 2230 nM
ASPC1, AsPC-1
  EC50: 4740 nM
AU565, AU565
  EC50: 1350 nM
BC-3C
  EC50: 2030 nM
BEN
  EC50: 12500 nM
BFTC-909, BFTC-909
  EC50: 7580 nM
BICR 31
  EC50: 1210 nM
BT-16, BT-16
  EC50: 3280 nM
BT-549, BT-549
  EC50: 296 nM
BXPC-3, BxPC-3
  EC50: 6030 nM
C3A
  EC50: > 30000 nM
C32, C32
  EC50: 830 nM
CAKI-1, Caki-1
  EC50: 845 nM
CAKI-2, Caki-2
  EC50: 3040 nM
CAL-12T
  EC50: 474 nM
CAL-27, CAL 27
  EC50: 713 nM
CAL-29
  EC50: 5690 nM
CAL-54, CAL-54
  EC50: 1170 nM
CAL-85-1, CAL-85-1
  EC50: 7990 nM
CAL-120, CAL-120
  EC50: 6810 nM
CAL-148, CAL-148
  EC50: 1680 nM
CAMA-1, CAMA-1
  EC50: 20500 nM
CAPAN-1, Capan-1
  EC50: 643 nM
CAS-1
  EC50: 705 nM
CCRF-HSB-2, CCRF-HSB-2
  EC50: 150 nM
CEM/C1, CEMC1
  EC50: 343 nM
CFPAC-1, CFPAC-1
  EC50: 3540 nM
CL-14
  EC50: > 30000 nM
CL-34
  EC50: 3880 nM
CMK
  EC50: 1800 nM
CMK-86, CMK-86
  EC50: 1720 nM
COLO 201, COLO 201
  EC50: 1120 nM
COLO 205, COLO 205
  EC50: 12500 nM
COLO 320, COLO-320
  EC50: 1400 nM
COLO 699, COLO-699
  EC50: 3050 nM
COLO 704, COLO-704
  EC50: 634 nM
COLO-678, COLO-678
  EC50: 3410 nM
COLO-679, COLO-679
  EC50: 492 nM
COLO-741, COLO 741
  EC50: 1340 nM
COLO-829, COLO 829
  EC50: 10700 nM
COR-L23, COR-L23
  EC50: 11800 nM
COR-L105, COR-L105
  EC50: 4940 nM
COV362, COV362
  EC50: 8840 nM
COV644
  EC50: 1040 nM
CW-2, CW-2
  EC50: 4950 nM
Calu-1, Calu-1
  EC50: 13000 nM
Calu-6, Calu-6
  EC50: 539 nM
ChaGo-K-1, ChaGo-K-1
  EC50: 967 nM
Ci-1, CI-1
  EC50: 193 nM
DAN-G
  EC50: 13400 nM
DB
  EC50: 290 nM
DLD-1, DLD-1
  EC50: > 30000 nM
DMS-53, DMS 53
  EC50: 8760 nM
DMS-153, DMS 153
  EC50: 405 nM
DMS-273, DMS 273
  EC50: 691 nM
DU-4475, DU4475
  EC50: 218 nM
Daoy
  EC50: 542 nM
Detroit 562, Detroit 562
  EC50: 4000 nM
EBC-1, EBC-1
  EC50: 5630 nM
EOL1, EOL-1
  EC50: 262 nM
Fu97, FU97
  EC50: 942 nM
G-401, G-401
  EC50: 402 nM
G-402, G-402
  EC50: 4100 nM
GAMG
  EC50: 2920 nM
GB-1, GB-1
  EC50: 3900 nM
GDM-1, GDM-1
  EC50: 162 nM
GI-1, GI-1
  EC50: 3270 nM
H4
  EC50: 790 nM
HCC15, HCC-15
  EC50: 5200 nM
HCC44, HCC-44
  EC50: 2380 nM
HCC70, HCC70
  EC50: 2350 nM
HCC78, HCC-78
  EC50: 2290 nM
HCC95, HCC-95
  EC50: 18400 nM
HCC827, HCC827
  EC50: 1780 nM
HCC1143, HCC1143
  EC50: 6070 nM
HCC1187, HCC1187
  EC50: 7500 nM
HCC1588, HCC-1588
  EC50: 421 nM
HCC1806, HCC1806
  EC50: 5450 nM
HCC1954, HCC1954
  EC50: 2180 nM
HCC4006, HCC4006
  EC50: 1730 nM
HCC-56
  EC50: 413 nM
HCC-1359
  EC50: 1870 nM
HCC-1833
  EC50: 3410 nM
HCT-15, HCT-15
  EC50: 1360 nM
